These results are taken from patent US11623919B2, “Heterocyclic P2X7 antagonists” (AXXAM S.P.A., priority 2017, dated 2023).

Test in all cases: Screen Quest Fluo-8 No Wash Calcium Assay (Bz-ATP evoked Ca2+ influx, FLIPR)
Type in all cases: cell-based

Experiment [1] concerns the target T1, P2X7 receptor (Homo sapiens, UniProt Q99572).
T1 sequence (Q99572 1-595): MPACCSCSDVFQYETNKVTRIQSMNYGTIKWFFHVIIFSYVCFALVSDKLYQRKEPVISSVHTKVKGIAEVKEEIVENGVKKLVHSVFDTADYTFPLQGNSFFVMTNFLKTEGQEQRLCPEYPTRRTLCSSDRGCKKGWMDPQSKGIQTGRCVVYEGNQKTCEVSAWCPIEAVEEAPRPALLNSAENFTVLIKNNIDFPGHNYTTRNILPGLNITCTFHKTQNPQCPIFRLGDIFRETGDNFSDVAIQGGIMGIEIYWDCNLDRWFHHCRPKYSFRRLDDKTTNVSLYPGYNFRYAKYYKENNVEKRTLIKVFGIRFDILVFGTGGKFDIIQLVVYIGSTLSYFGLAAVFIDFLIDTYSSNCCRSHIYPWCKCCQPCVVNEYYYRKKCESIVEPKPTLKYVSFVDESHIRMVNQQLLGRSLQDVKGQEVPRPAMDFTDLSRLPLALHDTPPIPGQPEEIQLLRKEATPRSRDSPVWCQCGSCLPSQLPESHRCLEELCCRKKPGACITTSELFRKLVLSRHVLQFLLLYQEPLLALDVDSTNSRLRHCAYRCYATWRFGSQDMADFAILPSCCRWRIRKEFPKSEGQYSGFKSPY
On the set-up: hP2X7 (IC50; nM); other: hP2X7; HEK-293 cells stably transfected with P2X7 receptor, Bz-ATP at EC80, Fluo-8 NW; potency. To be noted: hP2X7; HEK-293 cells stably transfected with P2X7 receptor, Bz-ATP at EC80, Fluo-8 NW; potency ranges A-D. A digest of the protocol:
(§1)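 Compounds were added to Fluo-8-loaded P2X7-transfected HEK-293 cells 5 min before an EC80 Bz-ATP challenge, and Ca2+ influx was then recorded for 3 min. Buffer held 0.3 mM Ca2+ and no Mg2+. Inhibition was normalised to A438079, giving IC50 values.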

Experiment [2] has as its target T2, P2X7 receptor (Rattus norvegicus, UniProt Q64663).
T2 construct: rP2X7 (IC50; nM); other: rP2X7; HEK-293 cells stably transfected with P2X7 receptor, Bz-ATP at EC80, Fluo-8 NW; potency
T2 sequence (Q64663 1-595): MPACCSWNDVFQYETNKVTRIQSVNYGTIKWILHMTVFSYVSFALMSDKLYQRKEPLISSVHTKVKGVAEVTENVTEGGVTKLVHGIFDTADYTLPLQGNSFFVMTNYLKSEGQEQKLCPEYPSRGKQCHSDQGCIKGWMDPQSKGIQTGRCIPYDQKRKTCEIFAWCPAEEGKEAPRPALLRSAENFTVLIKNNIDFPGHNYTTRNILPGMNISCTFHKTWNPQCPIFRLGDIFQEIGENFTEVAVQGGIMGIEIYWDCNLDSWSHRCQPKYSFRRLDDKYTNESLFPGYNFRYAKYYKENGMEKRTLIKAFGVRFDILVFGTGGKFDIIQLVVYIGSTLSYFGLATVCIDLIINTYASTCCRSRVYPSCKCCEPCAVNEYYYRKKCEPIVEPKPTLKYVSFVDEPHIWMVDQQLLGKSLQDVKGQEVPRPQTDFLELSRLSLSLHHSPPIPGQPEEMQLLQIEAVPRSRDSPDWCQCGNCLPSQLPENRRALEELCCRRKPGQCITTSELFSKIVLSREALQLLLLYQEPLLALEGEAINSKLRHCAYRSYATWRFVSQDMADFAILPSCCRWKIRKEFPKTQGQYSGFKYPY
To be noted: rP2X7; HEK-293 cells stably transfected with P2X7 receptor, Bz-ATP at EC80, Fluo-8 NW; potency ranges A-D. An outline of the steps: as §1

Experiment [3] addresses T3, P2X7 receptor (Mus musculus, UniProt Q9Z1M0).
T3 construct: mP2X7 (IC50; nM); other: mP2X7; HEK-293 cells stably transfected with P2X7 receptor, Bz-ATP at EC80, Fluo-8 NW; potency
T3 sequence (Q9Z1M0 1-595): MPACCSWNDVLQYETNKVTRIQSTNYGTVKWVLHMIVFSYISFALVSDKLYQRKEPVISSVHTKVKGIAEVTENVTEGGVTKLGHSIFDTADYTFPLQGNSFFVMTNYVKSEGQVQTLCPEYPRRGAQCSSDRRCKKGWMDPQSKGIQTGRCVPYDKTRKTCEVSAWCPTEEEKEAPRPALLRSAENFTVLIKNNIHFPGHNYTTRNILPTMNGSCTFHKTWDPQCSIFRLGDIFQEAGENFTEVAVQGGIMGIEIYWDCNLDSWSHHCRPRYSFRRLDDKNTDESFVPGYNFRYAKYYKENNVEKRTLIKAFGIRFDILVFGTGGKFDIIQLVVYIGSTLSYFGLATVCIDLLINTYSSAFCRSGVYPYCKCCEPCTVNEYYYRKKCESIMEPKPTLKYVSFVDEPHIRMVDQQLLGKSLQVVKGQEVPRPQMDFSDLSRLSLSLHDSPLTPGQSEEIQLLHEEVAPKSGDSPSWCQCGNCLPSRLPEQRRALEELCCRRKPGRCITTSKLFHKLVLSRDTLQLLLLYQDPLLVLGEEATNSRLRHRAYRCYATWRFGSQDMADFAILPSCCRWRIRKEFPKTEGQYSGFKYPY
The note with it: mP2X7; HEK-293 cells stably transfected with P2X7 receptor, Bz-ATP at EC80, Fluo-8 NW; potency ranges A-D. An outline of the steps:
as §1

With `O=c1onc(Cc2cccc(C(F)(F)F)c2Cl)n1Cc1c(F)cccc1Cl` [Example 16, 3-{[2-chloro-3-(trifluoromethyl)phenyl]methyl}-4-[(2-chloro-6-fluorophenyl)methyl]-4,5-dihydro-1,2,4-oxadiazol-5-one], the half-inhibitory concentration (IC50) is 1000 to 10000 nM in experiment [1], 1000 to 10000 nM in experiment [2] and greater than 10000 nM in experiment [3].

Consider `O=c1onc(Cc2ccc(F)cc2)n1Cc1cccc(Cl)c1Cl` [Example 50, 4-[(2,3-dichlorophenyl)methyl]-3-[(4-fluorophenyl)methyl]-4,5-dihydro-1,2,4-oxadiazol-5-one], for which the IC50 in experiment [1], in experiment [2] and in experiment [3] was greater than 10000 nM in each case.

In the case of `O=c1onc(Cc2ccc(F)cc2)n1Cc1ccc(Cl)cc1Cl` [Example 9, 4-[(2,4-dichlorophenyl)methyl]-3-[(4-fluorophenyl)methyl]-4,5-dihydro-1,2,4-oxadiazol-5-one], the half-maximal inhibitory concentration (IC50) in experiment [1] is 200 to 1000 nM; in experiment [2], 1000 to 10000 nM; in experiment [3] it was greater than 10000 nM.

With `O=c1onc(Cc2ccc(F)cc2Cl)n1Cc1c(F)cccc1Cl` [Example 14, 3-[(2-chloro-4-fluorophenyl)methyl]-4-[(2-chloro-6-fluorophenyl)methyl]-4,5-dihydro-1,2,4-oxadiazol-5-one], the half-maximal inhibitory concentration (IC50) in experiment [1] was 200 to 1000 nM; in experiment [2] it was 1000 to 10000 nM; in experiment [3] it was 1000 to 10000 nM.

Turning to `CCCCn1c(Cc2c(F)cccc2Cl)noc1=O` [Example 177, 4-butyl-3-[(2-chloro-6-fluorophenyl)methyl]-4,5-dihydro-1,2,4-oxadiazol-5-one], the half-inhibitory concentration (IC50) is 1000 to 10000 nM in experiment [1], 1000 to 10000 nM in experiment [2] and greater than 10000 nM in experiment [3].

Turning to `O=c1onc(Cc2c(F)cccc2Cl)n1Cc1ncccn1` [Example 39, 3-[(2-chloro-6-fluorophenyl)methyl]-4-(pyrimidin-2-ylmethyl)-4,5-dihydro-1,2,4-oxadiazol-5-one], the half-maximal inhibitory concentration (IC50) in experiment [1], in experiment [2] and in experiment [3] was greater than 10000 nM each time.

As for `O=c1onc(Cc2c(F)cccc2Cl)n1CC1CCC2(CC1)OCCO2` [Example 70, 3-[(2-chloro-6-fluorophenyl)methyl]-4-{1,4-dioxaspiro[4.5]decan-8-ylmethyl}-4,5-dihydro-1,2,4-oxadiazol-5-one], the IC50 fell in the range of 200 to 1000 nM in experiment [1], 1000 to 10000 nM in experiment [2] and 1000 to 10000 nM in experiment [3].

In the case of `CC#CCn1c(Cc2c(F)cccc2Cl)noc1=O` [Example 95, 4-(but-2-yn-1-yl)-3-[(2-chloro-6-fluorophenyl)methyl]-4,5-dihydro-1,2,4-oxadiazol-5-one], the half-maximal inhibitory concentration (IC50) in experiment [1], in experiment [2] and in experiment [3] was greater than 10000 nM each time.

As to `CC(c1c(F)cccc1Cl)c1noc(=O)n1CC1CCCCC1` (stereo not drawn) [Example 122, 3-[1-(2-chloro-6-fluorophenyl)ethyl]-4-(cyclohexylmethyl)-4,5-dihydro-1,2,4-oxadiazol-5-one], the 50% inhibitory concentration (IC50) in experiment [1] is greater than 10000 nM; in experiment [2] it was 1000 to 10000 nM; in experiment [3], greater than 10000 nM.

`Cc1ncsc1Cn1c(CC2CCC(F)(F)CC2)noc1=O` [Example 200, 3-[(4,4-difluorocyclohexyl)methyl]-4-[(4-methyl-1,3-thiazol-5-yl)methyl]-1,2,4-oxadiazol-5(4H)-one]: the IC50 in experiment [1], in experiment [2] and in experiment [3] was 200 to 1000 nM each time.

On to `COc1ccccc1Cn1c(Cc2c(F)cccc2Cl)noc1=O` [Example 28, 3-[(2-chloro-6-fluorophenyl)methyl]-4-[(2-methoxyphenyl)methyl]-4,5-dihydro-1,2,4-oxadiazol-5-one], for which the IC50 in experiment [1] was 1000 to 10000 nM; in experiment [2] it was greater than 10000 nM; in experiment [3] it was 1000 to 10000 nM.

Turning to `O=c1onc(Cc2ccccc2)n1CC1CCC(F)(F)CC1` [Example 161, 3-benzyl-4-[(4,4-difluorocyclohexyl)methyl]-4,5-dihydro-1,2,4-oxadiazol-5-one], the figures for the IC50 in experiment [1], in experiment [2] and in experiment [3] were 200 to 1000 nM, 200 to 1000 nM and 1000 to 10000 nM, respectively.

Take `O=c1onc(Cc2cccc(C(F)(F)F)c2Cl)n1Cc1ccc(F)cc1` [Example 72, 3-{[2-chloro-3-(trifluoromethyl)phenyl]methyl}-4-[(4-fluorophenyl)methyl]-4,5-dihydro-1,2,4-oxadiazol-5-one]: the IC50 in experiment [1], in experiment [2] and in experiment [3] was greater than 10000 nM each time.

With `O=c1onc(CC2CCC(F)(F)CC2)n1Cc1nccs1` [Example 191, 3-[(4,4-difluorocyclohexyl)methyl]-4-(1,3-thiazol-2-ylmethyl)-4,5-dihydro-1,2,4-oxadiazol-5-one], the concentration for half-maximal inhibition (IC50) in experiment [1] was 1000 to 10000 nM; in experiment [2] it was 200 to 1000 nM; in experiment [3], greater than 10000 nM.

As for `O=c1onc(Cc2c(F)cccc2Cl)n1Cc1ccccc1` [Example 21, 4-benzyl-3-[(2-chloro-6-fluorophenyl)methyl]-4,5-dihydro-1,2,4-oxadiazol-5-one], the half-inhibitory concentration (IC50) in experiment [1] lay within 200 to 1000 nM; in experiment [2] it was 1000 to 10000 nM; in experiment [3], 1000 to 10000 nM.

With `O=c1onc(Cc2ccc(F)cc2F)n1Cc1c(F)cccc1Cl` [Example 15, 4-[(2-chloro-6-fluorophenyl)methyl]-3-[(2,4-difluorophenyl)methyl]-4,5-dihydro-1,2,4-oxadiazol-5-one], the half-inhibitory concentration (IC50) in experiment [1], in experiment [2] and in experiment [3] was 1000 to 10000 nM each time.

Turning to `O=c1snc(Cc2c(F)cccc2Cl)n1Cc1ccc(F)cc1` [Example 139, 3-[(2-chloro-6-fluorophenyl)methyl]-4-[(4-fluorophenyl)methyl]-4,5-dihydro-1,2,4-thiadiazol-5-one], the IC50 lay in the range of 200 to 1000 nM in experiment [1], 200 to 1000 nM in experiment [2] and 1000 to 10000 nM in experiment [3].

Regarding `O=c1onc(CN2CCc3ccccc3C2)n1Cc1c(F)cccc1Cl` [Example 244, 4-[(2-chloro-6-fluorophenyl)methyl]-3-(1,2,3,4-tetrahydroisoquinolin-2-ylmethyl)-4,5-dihydro-1,2,4-oxadiazol-5-one], the figures for the concentration for half-maximal inhibition (IC50) in experiment [1], in experiment [2] and in experiment [3] were 1000 to 10000 nM, 200 to 1000 nM and 200 to 1000 nM, respectively.

Consider `O=c1onc(Cc2c(F)cccc2Cl)n1Cc1cccc(C(F)(F)F)c1Cl` [Example 58, 4-{[2-chloro-3-(trifluoromethyl)phenyl]methyl}-3-[(2-chloro-6-fluorophenyl)methyl]-4,5-dihydro-1,2,4-oxadiazol-5-one], for which the IC50 in experiment [1], in experiment [2] and in experiment [3] was 1000 to 10000 nM each time.

One may read the IC50 as the concentration that gives 50% inhibition.
